Test results as given in patent US20240209022A1, “NOVEL PEPTIDE HAVING ANTI-INFLAMMATORY AND TISSUE REGENERATIVE ACTIONS” (KOREA RESEARCH INSTITUTE OF BIOSCIENCE AND BIOTECHNOLOGY, priority 2020, published 2024).

B1: Amuc_1409: SEQ ID NO: 15, functional fragment obtained by eliminating the leader sequence from SEQ ID NO: 14; protein derived from Akkermansia muciniphila (protein)
chain: IPESSVPAAAVSSIKGAYPNAGPIEWDSEMHGMERIYEAEFRINGFQFDVKIAPDGKIVRIKEEIAASSLPEAVRASVLKRYPGCRIKEAEKITEGELVRYKVEVADSRDDYDVLIAPDGNILHVDR
modifications: Amuc_1409_fragment
notes: protein derived from Akkermansia muciniphila

Legend:
[1] = system: C57BL/6J naturally aged mice; experiment: Skin aging in naturally aged mice (skin H&E); type: in vivo, C57BL/6J mice; details: oral, vs PBS buffer group
Experimental: As an animal model of aging, 19- to 22-month old C57BL/6J naturally aged mice were used. Solid feed and water were sufficiently supplied until the day of the experiment, the environment was maintained at a temperature of 22° C. 2° C., humidity of 55%±15%, and a 12-hour light/dark cycle, and the mice were used for the experiment. Amuc_1409 and PEP001 were dissolved in PBS buffer at 10 μg/150 μL and 0.7 μg/150 μL, respectively, and then orally administered to the naturally aged mice by 150 μL per animal at the same time once a day for […], and novel tetrapeptides PEP006, PEP007, PEP008, PEP009, and PEP010 and novel tripeptides PEP011, PEP012, and PEP013 were each dissolved in PBS buffer at a concentration of 0.2 μg/150 μL and then orally administered to the naturally aged mice by 150 μL per animal at the same time once a day for 10 weeks. To the control group, PBS buffer was orally administered in the same manner.
On the day to be the 10th week of administration, a part of the tissue was excised from the back of the mouse and fixed in 10% formalin for 24 hours or more for histopathological analysis.
The fixed skin tissue was embedded in paraffin to prepare a 5 μm-thick section, and the skin section was H&E-stained with hematoxylin and eosin to analyze the skin epidermis thickness and the number of hair follicles.

[2] = system: ConA-induced acute hepatitis model; experiment: ConA-induced acute hepatitis model; type: in vivo, C57BL/6J mice; details: vs PBS buffer group; for ALT / AST: plasma, 9 hours after ConA
Experimental: An acute hepatitis model was induced by dissolving ConA (concanavalin A) in PBS buffer (phosphate buffered saline) at 1.5 mg/mL and injecting the solution into 8-week-old specific pathogen free (SPF) male C57BL/6J mice through the tail vein in proportion to the mouse body weight based on 100 μL/10 g. Amuc_1409 or PEP001, PEP002, PEP003, PEP004, or PEP005 was dissolved in PBS buffer at a concentration of 6.7 μM from 3 days before ConA administration, and PEP007, PEP008, PEP009, or PEP010 was dissolved in PBS buffer at a concentration of 0.2 μg/150 μL from 3 days before ConA administration, and Amuc_1409 was injected into the mouse peritoneal cavity once a day at the same time by 210 μL and PEP001 to PEP010 by 150 μL, and intraperitoneally injected additionally one time 30 minutes before ConA injection, and the experiment was terminated 9 hours after ConA intravenous injection. Into the control group, PBS buffer was intravenously injected in the same manner. At the end of the experiment 9 hours after ConA intravenous injection, blood was collected from the orbital venous plexus using a heparin-treated capillary tube, and the collected blood was immediately centrifuged at 10,000 rpm (4° C.) for 10 minutes to separate plasma and then subjected to the analysis of alanine aminotransferase (ALT) and aspartate aminotransferase (AST), which are indicators of liver damage, using an automatic blood biochemical analyzer (Beckman Coulter AU480 automatic analyzer, Beckman Coulter). The liver was harvested, a part of the liver was fixed in 10% NBF at room temperature for 24 hours or more and then embedded in paraffin to prepare a 5 μm-thick section, and the section was stained with hematoxylin and eosin (H&E).

[3] = system: DSS-induced enteritis model; experiment: DSS enteritis (inflammatory bowel disease) model; type: in vivo, C57BL/6J mice; details: vs PBS buffer group; for Il-6 gene expression in distal colon: RT-qPCR; for length of the colon: oral 3 days in recovery period; for body weight (weight gain rate): recovery period after DSS, oral 6 days
Experimental: In order to confirm the efficacy of the peptides of the present invention for preventing and treating inflammatory bowel disease, an experiment was conducted using an animal model of enteritis. As the enteritis model, enteritis was induced by dissolving DSS in drinking water at a concentration of 1.2% and then administered to 10-week-old specific pathogen free (SPF) male C57BL/6J mice through the drinking water for 6 days, and then the drinking water was replaced with water to give a recovery period. During the recovery period, PEP002, PEP003, PEP004, or PEP005 was dissolved in PBS buffer at a concentration of 4.3 μM and then orally administered to the mice by 150 μL per animal once a day at the same time, and the same volume of PBS buffer was orally administered to the control group. During the recovery period, oral administration was performed 6 times for 6 days to examine the rate of increase in body weight due to recovery from enteritis. In addition, in order to examine the length of the colon, the degree of inflammation in the colon, and the degree of recovery of the colon tissue, the test was terminated after oral administration 3 times for 3 days. At the end of the experiment, the length of the colon was measured, a part of the distal colon was rapidly cooled in liquid nitrogen, and RNA was extracted using Trizol. Reverse transcriptase was added to the obtained RNA and reacted to synthesize cDNA, and SYBR Green and primers were added to perform quantitative real-time PCR (RT-qPCR), and then the level of Il-6 gene expression was quantified. In addition, a part of the distal colon was fixed in 10% NBF at room temperature for 24 hours or more, and then embedded in paraffin to prepare a 5 μm-thick section, and the section was stained with hematoxylin and eosin (H&E). The H&E-stained tissue sections were observed under an optical microscope and the histopathological degree of enteritis was evaluated using a histologic colitis scoring system (Table 4). [table]

naturally aged mice = experiment: NORT and Y-maze alteration test in naturally aged mice; type: in vivo, C57BL6/J mice; details: oral; for spontaneous alteration, Y-maze alteration test: 0.2 μg daily 5 days a week for 8 weeks, vs PBS buffer
Experimental: An experiment was conducted to verify the efficacy of the peptides of the present invention in an animal model of cognitive/memory disorder due to natural aging.
Amuc_1409 was orally administered to 16.5-month-old male mice by 4.5 μg daily 5 days a week for 8 weeks, and PEP002, PEP003, PEP004, or PEP005 was dissolved in PBS buffer at a concentration of 2.4 μM and then orally administered to 16-month-old male mice by 150 μL per animal at the same time once a day for 3 weeks. To the control group (vehicle), PBS was orally administered in the same volume.
In the case of the groups administered with the novel tetrapeptides and tripeptides (PEP006 to PEP013), each peptide was orally administered to 19-month-old female C57BL6/J mice by 0.2 μg daily 5 days a week for 8 weeks. At this time, the peptide was dissolved in PBS buffer and orally administered to the mice at 0.2 μg/150 μL per animal at the same time once a day. To the vehicle group, PBS was orally administered in the same volume. At this time, 4-month-old female C57BL6/J mice were used as a young control group.
A novel object recognition test (NORT) was performed to test the effect of improving cognitive function in naturally aged mice. When the object seen 24 hours ago and a novel object were provided, the exploration time and the number of explorations for the novel object were measured to test cognition and memory. In addition, a Y-maze alteration test was performed to confirm the effect of enhancing spatial perception and memory. In the Y-maze alteration test, spontaneous alteration (%) was evaluated by measuring the order of entering each Y-shaped maze (A, B and C). […] The spontaneous alteration was calculated and expressed as the total number of alterations/(total number of entries−2)×100.

Row | Molecule | number of hair follicles [1] | thickness of the skin epidermis [1] | ALT [2] | AST [2] | Il-6 gene expression in distal colon [3] | length of the colon [3] | body weight (weight gain rate) [3] | degree of crypt damage (H&E) [3] | degree or extent of intestinal inflammation (H&E) [3] | spontaneous alteration, Y-maze alteration test (naturally aged mice) | inflammatory cells infiltration into the liver and necrosis in the liver parenchyma (H&E) [2] | cognition and memory, novel object recognition test (naturally aged mice; naturally aged mice, vs control group)
1 | AIS [PEP013] | tended to increase | increased close to a significant level | – | – | – | – | – | – | – | – | – | –
2 | AVSSI (PEP002) | – | – | significantly decreased | tended to decrease | significantly decreased | significantly increased | tended to increase | significantly decrease | decreased | – | – | –
3 | SGAY (PEP009) | tended to increase | significantly increased | tended to decrease | tended to decrease | – | – | – | – | – | – | – | –
4 | KGAY (PEP003) | – | – | significantly decreased | tended to decrease | significantly decreased | tended to increase | tended to increase | significantly decrease | decreased | – | – | –
5 | GAY [PEP005] | – | – | decreased close to a significant level | tended to decrease | significantly decreased | significantly increased | significantly increased | significantly decrease | decreased | – | – | –
6 | AQS [PEP011] | – | significantly increased | – | – | – | – | – | – | – | – | – | –
7 | VGAY (PEP010) | tended to increase | significantly increased | significantly decreased | decreased close to a significant level | – | – | – | – | – | significantly improved | – | –
8 | AVSSIKGAY (PEP001) | – | significantly increased | decreased close to a significant level | decreased close to a significant level | – | – | – | – | – | – | – | –
9 | AGAY (PEP006) | tended to increase | significantly increased | – | – | – | – | – | – | – | – | – | –
10 | RGAY (PEP007) | tended to increase | significantly increased | significantly decreased | tended to decrease | – | – | – | – | – | – | – | –
11 | AGS [PEP012] | tended to increase | significantly increased | – | – | – | – | – | – | – | – | – | –
12 | AVS (AVSSIKGAY) [PEP004] | – | – | significantly decreased | tended to decrease | significantly decreased | significantly increased | significantly increased | significantly decrease | decreased | – | – | –
13 | IGAY (PEP008) | tended to increase | significantly increased | tended to decrease | – | – | – | – | – | – | significantly improved | – | –
14 | B1 | – | significantly increased | significantly decreased | significantly decreased | – | – | – | – | – | – | markedly reduced | significantly improved or tended to be improved
